Assay results: PubChem BioAssay AID256 (DTP/NCI, 2004)
Inconclusive results and toxic doses are left out. How the source made its calls: active means survival T/C of 150% or more; inactive means T/C below 125% in these data.

System: CD2F1 mice, L1210 leukemia ip, survival T/C
Assay: NCI In Vivo Anticancer Drug Screen. Data for tumor model L1210 Leukemia (intraperitoneal) in CD2F1 (CDF1) mice
Conditions: higher = longer survival
In short: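 Transplantable tumor in mice; compound-treated vs vehicle-treated groups. Read-out = treated/control ratio of the measured endpoint.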

[1] = endpoint: mean survival time, dose: 200.0 mg/kg/injection, schedule: Q01DX001 (ip), vehicle: other
[2] = endpoint: mean survival time, dose: 400.0 mg/kg/injection, schedule: Q01DX001 (ip), vehicle: other
[3] = endpoint: mean survival time, dose: 100.0 mg/kg/injection, schedule: Q01DX001 (ip), vehicle: saline with Tween-80
[4] = endpoint: mean survival time, dose: 200.0 mg/kg/injection, schedule: Q01DX001 (ip), vehicle: saline with Tween-80
[5] = endpoint: mean survival time, dose: 400.0 mg/kg/injection, schedule: Q01DX001 (ip), vehicle: saline with Tween-80
[6] = endpoint: mean survival time, dose: 100.0 mg/kg/injection, schedule: Q04DX002 (ip), vehicle: saline with Tween-80
[7] = endpoint: mean survival time, dose: 400.0 mg/kg/injection, schedule: Q04DX002 (ip), vehicle: saline with Tween-80
[8] = endpoint: mean survival time, dose: 100.0 mg/kg/injection, schedule: Q01DX009 (ip), vehicle: saline with Tween-80
[9] = endpoint: mean survival time, dose: 200.0 mg/kg/injection, schedule: Q01DX009 (ip), vehicle: saline with Tween-80
[10] = endpoint: mean survival time, dose: 400.0 mg/kg/injection, schedule: Q01DX009 (ip), vehicle: saline with Tween-80
[11] = endpoint: mean survival time, dose: 100.0 mg/kg/injection, schedule: Q04DX003 (ip), vehicle: saline with Tween-80

Measured: T/C

N.N.N.N.N.N#CN=C(N)N.[Co+3].[O-][Cl+3]([O-])([O-])[O-]
inactive: endpoint: mean survival time, dose: 25.0 mg/kg/injection, schedule: Q04DX002 (ip), vehicle: saline 97 % of control | endpoint: mean survival time, dose: 50.0 mg/kg/injection, schedule: Q04DX002 (ip), vehicle: saline 101 % of control | endpoint: mean survival time, dose: 100.0 mg/kg/injection, schedule: Q04DX002 (ip), vehicle: saline 101 % of control

CCCCOC(=O)c1ccc2c(ccc[n+]2C)c1
inactive: endpoint: mean survival time, dose: 37.5 mg/kg/injection, schedule: Q01DX009 (ip), vehicle: saline with Tween-80 97 % of control | endpoint: mean survival time, dose: 75.0 mg/kg/injection, schedule: Q01DX009 (ip), vehicle: saline with Tween-80 103 % of control | endpoint: mean survival time, dose: 150.0 mg/kg/injection, schedule: Q01DX009 (ip), vehicle: saline with Tween-80 107 % of control

CC1(c2cc(F)cc3ccccc23)OC(=O)c2ccccc21 (centres undefined)
inactive: endpoint: median survival time, dose: 25.0 mg/kg/injection, schedule: Q04DX003 (ip), vehicle: saline with Tween-80 100 % of control | endpoint: median survival time, dose: 50.0 mg/kg/injection, schedule: Q04DX003 (ip), vehicle: saline with Tween-80 100 % of control | endpoint: median survival time, dose: 100.0 mg/kg/injection, schedule: Q04DX003 (ip), vehicle: saline with Tween-80 100 % of control | endpoint: median survival time, dose: 200.0 mg/kg/injection, schedule: Q04DX003 (ip), vehicle: saline with Tween-80 100 % of control

CCCCCCCC/C=C/CCCCCCCC(=O)NCCCCCCNC(=O)CCCCCCC/C=C/CCCCCCCC
inactive: endpoint: mean survival time, dose: 100.0 mg/kg/injection, schedule: Q01DX001 (ip), vehicle: other 94 % of control | [1] 97 % of control | [2] 102 % of control

O=[N+]([O-])C1=C(c2ccccc2)SC=C(c2ccccc2)S1
inactive: [3] 87 % of control | [4] 97 % of control | [5] 105 % of control

O=C(Nc1ccc(Cl)c(Cl)c1)c1ccc(Cl)c(Cl)c1
inactive: [6] 95 % of control | [7] 91 % of control

Cc1cc(O)cc(=O)o1
inactive: [1] 93 % of control | [2] 105 % of control

CC1=CC(=O)C2C(C)(C)CCCC2(C)C1(O)CCc1ccoc1 (centres undefined)
inactive: [6] 110 % of control | endpoint: mean survival time, dose: 200.0 mg/kg/injection, schedule: Q04DX002 (ip), vehicle: saline with Tween-80 103 % of control | [7] 107 % of control

CN(C)N=Nc1cccc(C(N)=O)c1
inactive: endpoint: mean survival time, dose: 5.0 mg/kg/injection, schedule: Q01DX009 (ip), vehicle: Klucel (hydroxypropylcellulose) (HPC) 112 % of control | endpoint: mean survival time, dose: 10.0 mg/kg/injection, schedule: Q01DX009 (ip), vehicle: Klucel (hydroxypropylcellulose) (HPC) 113 % of control | endpoint: mean survival time, dose: 20.0 mg/kg/injection, schedule: Q01DX009 (ip), vehicle: Klucel (hydroxypropylcellulose) (HPC) 117 % of control | endpoint: mean survival time, dose: 80.0 mg/kg/injection, schedule: Q01DX009 (ip), vehicle: Klucel (hydroxypropylcellulose) (HPC) 113 % of control | endpoint: mean survival time, dose: 108.0 mg/kg/injection, schedule: Q01DX009 (ip), vehicle: Klucel (hydroxypropylcellulose) (HPC) 93 % of control

CC(C(=O)c1cc(O)c(O)cc1C(O)(C(F)(F)F)C(F)(F)F)C(O)(C(F)(F)F)C(F)(F)F (centres undefined)
inactive: [8] 94 % of control | [9] 94 % of control | [10] 94 % of control

CC(C)(C)OC(=O)NC(CCCCNC(=O)OCc1ccccc1)C(=O)Oc1ccc([N+](=O)[O-])cc1 (centres undefined)
inactive: [11] 91 % of control | endpoint: mean survival time, dose: 200.0 mg/kg/injection, schedule: Q04DX003 (ip), vehicle: saline with Tween-80 86 % of control | endpoint: mean survival time, dose: 400.0 mg/kg/injection, schedule: Q04DX003 (ip), vehicle: saline with Tween-80 86 % of control

Cc1ccc(C(=O)/C=C/c2ccccc2)cc1
inactive: endpoint: mean survival time, dose: 25.0 mg/kg/injection, schedule: Q01DX009 (ip), vehicle: Klucel (hydroxypropylcellulose) (HPC) 86 % of control | endpoint: mean survival time, dose: 50.0 mg/kg/injection, schedule: Q01DX009 (ip), vehicle: Klucel (hydroxypropylcellulose) (HPC) 88 % of control | [3] 108 % of control | endpoint: mean survival time, dose: 100.0 mg/kg/injection, schedule: Q01DX009 (ip), vehicle: Klucel (hydroxypropylcellulose) (HPC) 86 % of control | [4] 100 % of control | endpoint: mean survival time, dose: 200.0 mg/kg/injection, schedule: Q01DX009 (ip), vehicle: Klucel (hydroxypropylcellulose) (HPC) 86 % of control | [5] 100 % of control

CC(=O)CC(C)=O.CC(=O)CC(C)=O.[Pd]
inactive: endpoint: mean survival time, dose: 6.25 mg/kg/injection, schedule: Q04DX002 (ip), vehicle: saline with Tween-80 96 % of control | endpoint: mean survival time, dose: 12.5 mg/kg/injection, schedule: Q04DX002 (ip), vehicle: saline with Tween-80 87 % of control

CC1CC(C)(C)NC(CC2CCCCC2O)O1 (centres undefined)
inactive: [11] 94 % of control

O=C(O)c1cccnc1Cl
inactive: endpoint: mean survival time, dose: 75.0 mg/kg/injection, schedule: Q01DX009 (ip), vehicle: Klucel (hydroxypropylcellulose) (HPC) 111 % of control | endpoint: mean survival time, dose: 150.0 mg/kg/injection, schedule: Q01DX009 (ip), vehicle: Klucel (hydroxypropylcellulose) (HPC) 94 % of control

c1ccc(NCc2nc3ccccc3[nH]2)cc1
inactive: endpoint: mean survival time, dose: 12.5 mg/kg/injection, schedule: Q01DX005 (ip), vehicle: water 101 % of control | endpoint: mean survival time, dose: 25.0 mg/kg/injection, schedule: Q01DX005 (ip), vehicle: water 102 % of control

C[C@]12C[C@H](O)[C@H]3[C@@H](CCC4=CC(=O)CC[C@@]43C)[C@@H]1CC[C@@H]2C(=O)CO
inactive: endpoint: median survival time, dose: 25.0 mg/kg/injection, schedule: Q01DX009 (sc), vehicle: steriod suspending solution 100 % of control | endpoint: median survival time, dose: 50.0 mg/kg/injection, schedule: Q01DX009 (sc), vehicle: steriod suspending solution 100 % of control | endpoint: median survival time, dose: 100.0 mg/kg/injection, schedule: Q01DX009 (sc), vehicle: steriod suspending solution 100 % of control | endpoint: median survival time, dose: 200.0 mg/kg/injection, schedule: Q01DX009 (sc), vehicle: steriod suspending solution 100 % of control

O=C(Nc1cccc2c(NC(=O)c3ccccc3)cccc12)c1ccccc1
inactive: [8] 94 % of control | [9] 95 % of control | [10] 91 % of control

Cc1ccc(SSc2ccc(C)cc2)cc1
inactive: endpoint: mean survival time, dose: 100.0 mg/kg/injection, schedule: Q01DX001 (ip), vehicle: saline 100 % of control | endpoint: mean survival time, dose: 200.0 mg/kg/injection, schedule: Q01DX001 (ip), vehicle: saline 100 % of control | endpoint: mean survival time, dose: 400.0 mg/kg/injection, schedule: Q01DX001 (ip), vehicle: saline 91 % of control

CC(C)(C)N1C2CCCC21 (centres undefined)
inactive: endpoint: mean survival time, dose: 5.0 mg/kg/injection, schedule: Q01DX001 (ip), vehicle: saline 106 % of control | endpoint: mean survival time, dose: 5.0 mg/kg/injection, schedule: Q01DX009 (ip), vehicle: saline 102 % of control | endpoint: mean survival time, dose: 10.0 mg/kg/injection, schedule: Q01DX001 (ip), vehicle: saline 106 % of control | endpoint: mean survival time, dose: 10.0 mg/kg/injection, schedule: Q01DX009 (ip), vehicle: saline 102 % of control | endpoint: mean survival time, dose: 20.0 mg/kg/injection, schedule: Q01DX001 (ip), vehicle: saline 95 % of control | endpoint: mean survival time, dose: 20.0 mg/kg/injection, schedule: Q01DX009 (ip), vehicle: saline 100 % of control

CC1(C)OC2COC(OCc3ccccc3)C(OCc3ccccc3)C2O1 (centres undefined)
inactive: [8] 104 % of control | [9] 101 % of control | [10] 96 % of control

CCCC(O)(CC)C1CCCC1C (centres undefined)
inactive: endpoint: mean survival time, dose: 50.0 mg/kg/injection, schedule: Q01DX009 (ip), vehicle: saline with Tween-80 100 % of control | [8] 95 % of control | [9] 100 % of control

CC(CCC/C=C/CCCN(C)C(=N)N)CC(C)C1OC(=O)C(C)C(O)/C=C/C(C)C(O)C(C)C(O)C(C)C(O)CCCC(O)CC2(O)OC(CC(OC(=O)CC(=O)O)CC(O)CC(O)C(C)C(O)/C=C/C=C/C1C)CC(O)C2O (centres undefined)
inactive: endpoint: mean survival time, dose: 5.5 mg/kg/injection, schedule: Q01DX009 (ip), vehicle: saline 100 % of control

COC(=O)CCC#N
inactive: endpoint: mean survival time, dose: 100.0 mg/kg/injection, schedule: Q04DX003 (ip), vehicle: saline 96 % of control | endpoint: mean survival time, dose: 200.0 mg/kg/injection, schedule: Q04DX003 (ip), vehicle: saline 91 % of control | endpoint: mean survival time, dose: 400.0 mg/kg/injection, schedule: Q04DX003 (ip), vehicle: saline 97 % of control
